This is an account of results in US20190307749A1, “Mitochondria-Division Inhibitor 1 Protects Against Amyloid-B Induced Mitochondrial Fragmentation and Synaptic Damage in Alzheimer's Disease” (Texas Tech University System, priority 2018, published 2019).

For experiment [1], the system named is mouse neuroblastoma (N2a) cells. The experiment is described as follows: Quantitative real-time RT-PCR: mRNA expression of mitochondrial dynamics, biogenesis and synaptic genes. Particulars: N2a cells + Aβ42; Mdivi1 given before (preventive) vs after (curative) Aβ42; mRNA and protein data. It counts as cell-based. Here is the method: (§1) Tissue culture: The N2a cells were grown for 3 days in a serum-free medium (1:1 mixture of DMEM and OptiMEM, plus penicillin and streptomycin [Invitrogen, Carlsbad, Calif., USA]) until the cells developed neuronal processes.
Quantitative real-time RT-PCR: Using the reagent TriZol (Invitrogen), total RNA was isolated from cell pellets from the 5 N2a cell groups (FIG. 1). Using primer express software (Applied Biosystems, Carlsbad, Calif., USA), the inventors designed the oligonucleotide primers for the housekeeping genes 3-actin, GAPDH, mitochondrial structural genes, fission genes (Drp1, Fis1), fusion genes (MFN1, MFN2, Opa1), biogenesis genes (PGC1c, Nrf1, Nrf2, TFAM), and synaptic genes (synaptophysin and PSD95) (see Table 1 for primer sequences and amplicon sizes). Using SYBR-Green chemistry-based quantitative real-time RT-PCR, mRNA expressions of the above-mentioned genes were measured, as described by Manczak and Reddy.
The mRNA transcript level was normalized against β-actin and the GAPDH at each dilution. The standard curve was the normalized mRNA transcript level, plotted against the log-value of the input cDNA concentration at each dilution. To compare β-actin, GAPDH, and relative quantification was performed according to the (CT) method (Applied Biosystems). […] The ΔCT-value was obtained by subtracting the average β-actin CT value from the average CT-value of the synaptic mitochondrial ETC genes and the mitochondrial structural genes. The ΔCT of untreated cells was used as the calibrator. The fold change was calculated according to the formula 2^-(Δ ΔCT), where ΔΔCT is the difference between ΔCT and the ΔCT calibrator value. To determine the statistical significance of mRNA expression, the CT value differences between the untreated cells and other experimental groups of cells were used in relation to β-actin normalization. Statistical significance was calculated, using one-way ANOVA.

Experiment [2] concerns N2a cells. Put plainly: H2O2 production (Amplex Red H2O2 assay). Type of experiment: cell-based, mouse. Particulars: Mdivi1 24 hrs or Aβ42 20 μM 6 hrs alone, vs untreated N2a cells. Here is the method: as §1
Mitochondrial functional assays. H2O2 production: Using an Amplex® Red H2O2 assay kit (Molecular Probes, Eugene, Oreg., USA), H2O2 production was measured using cell pellets, as described in Manczak and Reddy. Briefly, H2O2 production was measured in the protein lysates prepared from cell pellets of control untreated N2a cells and 4 treatment groups (FIG. 1). A BCA protein assay kit (Pierce Biotechnology) was used to estimate protein concentration. The reaction mixture contained mitochondrial proteins (μg/μl), Amplex Red reagents (50 μM), horseradish peroxidase (0.1 U/ml), and a reaction buffer (1×). The mixture was incubated at room temperature for 30 minutes, followed by spectrophotometer readings of fluorescence (570 nm). Finally, H2O2 production was determined, using a standard curve equation expressed in nmol/μg mitochondrial protein.

Experiment [3] concerns mouse neuroblastoma (N2a) cells. Put plainly: Immunoblotting analysis of mitochondrial dynamics, biogenesis and synaptic proteins. Type of experiment: cell-based. Particulars: Mdivi1 24 hrs or Aβ42 20 μM 6 hrs alone, vs untreated N2a cells. Here is the method:
as §1
Twenty g of protein was resolved from each group of cells on a 4-12% Nu-PAGE gel (Invitrogen). The resolved proteins were transferred to […] (Novax Inc., San Diego, Calif., USA) and were then incubated for 1 hour at room temperature with a blocking buffer (5% dry milk dissolved in a TBST buffer). The PVDF membranes were incubated overnight with primary antibodies (see Table 2) and washed 3 times with a TBST buffer at 10-minute intervals. They were then incubated for 2 hours with appropriate secondary antibodies, followed by 3 additional washes at 10-minute intervals. Mitochondrial and synaptic proteins were detected with cheminilumniscence reagents (Pierce Biotechnology, Rockford, Ill., USA), and the bands from immunoblots were quantified on a Kodak scanner, following manufacturer's instructions (ID Image Analysis Software, Kodak Digital Science, Kennesaw, Ga., USA), and the gel images were analyzed from gel images captured with a Kodak digital science CD camera. The lanes were marked to define the positions and specific regions of the bands. An ID fine-band command was used to locate and to scan the bands in each lane and to record the readings.
(In western blotting, separated proteins are transferred to a membrane and probed.)

For experiment [4], the system named is N2a cells. Put plainly: Cell viability (MTT assay). It counts as cell-based, mouse. The conditions noted are these: Mdivi1 24 hrs or Aβ42 20 μM 6 hrs alone, vs untreated N2a cells. As for the experimental part: as §1
The N2a cells from all 5 groups (4 treatment groups and 1 control group) were harvested, and their cell pellets were collected and used for quantitative real-time RT-PCR, immunoblotting analysis of mitochondrial and synaptic proteins, and mitochondrial functional assays for hydrogen peroxide production, lipid peroxidation, cytochrome c oxidase activity, and MTT determination. Isolated mitochondria from N2a cells from all 5 groups were used to determine mitochondrial ATP as described in Reddy et al..
In general terms: Tetrazolium dyes change colour on reduction, which living cells bring about.

The subject of experiment [5] is N2a cells. The experiment is described as follows: Cytochrome c oxidase activity. It counts as cell-based, mouse. Particulars: Mdivi1 24 hrs or Aβ42 20 μM 6 hrs alone, vs untreated N2a cells. As for the experimental part:
as §1
Cytochrome c oxidase activity: Cytochrome oxidase activity was measured in each of the 5 groups of N2a cells. Enzyme activity was assayed spectrophotometrically using a Sigma Kit (Sigma-Aldrich) following manufacturer's instructions. […] The decrease in absorbance at […] was recorded for 1-min reactions at 10-sec intervals. Cytochrome oxidase activity was measured according to the following formula: mU/mg total mitochondrial protein=(A/min sample−(A/min blank)×1.1 mg protein×21.84). The protein concentrations were determined following the BCA method.

The next experiment concerns N2a cell mitochondria. The experiment is described as follows: Mitochondrial ATP levels (luciferase bioluminescence). It counts as cell-based, mouse. Particulars: N2a cells; Mdivi1 24 hrs or Aβ42 20 μM 6 hrs alone; vs untreated N2a cells. As for the experimental part:
as §1
ATP levels: ATP levels were measured in N2a cell mitochondria from the treatment groups using an ATP determination kit (Molecular Probes). A bioluminescence assay was used, based on the reaction of ATP with recombinant firefly luciferase and its substract luciferin. Luciferase catalyzes the formation of light from ATP and luciferin. It is the emitted light that is linearly related to the concentration of ATP, which is measured with a luminometer. ATP levels were measured from mitochondrial pellets using a standard curve method.

The test system of experiment [6] is N2a cells. Put plainly: Lipid peroxidation assay (4-hydroxy-2-nonenol, HNE-His ELISA). Type of experiment: cell-based, mouse. The conditions noted are these: Mdivi1 24 hrs or Aβ42 20 μM 6 hrs alone, vs untreated N2a cells. As for the experimental part:
as §1
Lipid peroxidation assay: Lipid peroxidates are unstable indicators of oxidative stress in the brain. The final product of lipid peroxidation is 4-hydroxy-2-nonenol (HNE), which was measured in the N2a cell lysates prepared from cell pellets of control and treatment groups. The inventors used an HNE-His ELISA kit (Cell BioLabs, Inc., San Diego, Calif., USA), as described in Manczak and Reddy. Briefly, freshly prepared protein as added to a 96-well protein binding plate and incubated overnight at 4° C. The protein then washed 3 times with a buffer. After the last wash, the anti-HNE-His antibody was added to the protein in the wells, incubated for 2 hours at room temperature, and then washed again 3 times. The samples were then incubated with a secondary antibody conjugated with peroxidase for 2 hours at room temperature, followed by incubation with an enzyme substrate. Optical density was measured (at 450 nm) to quantify the level of HNE.
For orientation: ELISA stands for enzyme-linked immunosorbent assay.

Take `O=c1c2ccccc2[nH]c(=S)n1-c1cc(O)c(Cl)cc1Cl` [water soluble Mdivi1, 3-(2,4-dichloro-5-hydroxyphenyl)-2-thioxo-2,3-dihydroquinazolin-4(1H)-one]: the “Protective effects against Aβ42, pre-treated vs post-treated cells” value in experiment [1] is recorded as “stronger in pre-treated cells than post-treated cells”.
“Aβ42: Aβ42 peptide purchased from Anaspec, used to induce mitochondrial and synaptic toxicity in N2a cells”: in the experiment on N2a cells [2], the H2O2 levels entry is recorded as “significantly increased”. Also, in experiment [3], the Drp1 protein level entry is recorded as “significantly higher”, the Fis1 protein level result was “significantly higher”, the Mfn1 protein level result is listed as “significantly lower” and the Mfn2 protein level result is listed as “significantly lower”. For the same compound, in experiment [3], the Nrf1 protein level entry was “Significantly lower”, the Nrf2 protein level result is given as “Significantly lower”, the Opa1 protein level entry is “significantly lower” and the PGC1α protein level result is reported as “Significantly lower”. For the same compound, in experiment [3], the PSD95 protein level result is reported as “significantly lower” and the Synaptophysin protein level entry is “significantly lower”. Also, in experiment [3] (listed as Aβ), the PSD95 protein level result is reported as “significantly higher” and the Synaptophysin protein level result is recorded as “significantly higher”. For the same compound, the Cell viability entry in the experiment with N2a cells [4] is recorded as “Significantly lower”. In the experiment with N2a cells [5], the Cytochrome oxidase activity result is “Significantly lower”. Besides, the “Mitochondrial ATP levels” value in the experiment on N2a cell mitochondria is on record as “Significantly lower”. Further, the “Lipid peroxidation levels (4-hydroxy-2-nonenol)” value in the experiment on N2a cells [6] was “Significantly higher”.
